Patent US20100143994A1, “PROCESS FOR FERMENTIVE PREPARATION OF ALCOHOLS AND RECOVERY OF PRODUCT” (E. I. DU PONT DE MEMOURS AND COMPANY, priority 2008, published 2010)

Tests used:
[1] = tested on: Saccharomyces cerevisiae (W1362 20A); assay: Scale-up (25 mL broth) fermentation with ionic liquid, glucose uptake and ethanol production over five hours; assay type: cell-based; details: 5 volume percent ionic liquid, five hour time span, FIG. 2
Method: Cultures were again prepared using the same growth conditions as described above except that the total broth volume was 25 mL. The selected ionic liquids were added to a container of each broth in an amount of 5 volume percent. In these experiments, small samples were withdrawn from the broth for HPLC analysis periodically over a five hour time span to get a better idea of the extent of metabolic activity after ionic liquid addition as well as to provide information on glucose consumption and product formation. […] The calculation of GUI was made as described above, and amount of ethanol produced was taken directly from the HPLC data.

[2] = Extraction of ethanol from an aqueous solution by ionic liquid; assay type: physicochemical; details: 3 mL aqueous solution about 31 g/L ethanol, 5 vol % ionic liquid, overnight equilibration
Method: (§1) Ethanol and isobutanol concentration in the solution was measured using HPLC as described above following thorough mixing and overnight equilibration of the contents of the vial.

[3] = Extraction of isobutanol from an aqueous solution by ionic liquid; assay type: physicochemical; details: 3 mL aqueous solution about 31 g/L isobutanol, 5 vol % ionic liquid, overnight equilibration
Method: as §1

| Compound | ethanol production throughout the fermentation run [1] | glucose uptake (GUI) throughout the fermentation run [1] | Ethanol (mM) in solution after equilibration [2] [mM] | Isobutanol (mM) in solution after equilibration [3] [mM] |
| --- | --- | --- | --- | --- |
| 1-ethyl-3-methylimidazolium bis(trifluoromethylsulfonyl)imide [Example 6] | remained robust | remained robust | 670 | 389 |
| 1-hexyl-3-methylimidazolium bis(trifluoromethylsulfonyl)imide [Example 9] | remained robust | remained robust | 678 | 388 |
| 1-butyl-3-methylpyrrolidinium bis(trifluoromethylsulfonyl)imide [Example 15] | remained robust | remained robust | 676 | 391 |
| CCCCCCn1cc[n+](C)c1.FC(F)(F)C(F)(F)[P-](F)(F)(F)(C(F)(F)C(F)(F)F)C(F)(F)C(F)(F)F [Example 1, 1-hexyl-3-methylimidazolium tris(pentafluoroethyl)trifluorophosphate] | remained robust | remained robust | 680 | 404 |
